These results are taken from US5869524A, “Indene inhibitors of COX-2” (American Home Products Corporation, priority 1997, dated 1999).

One data set concerns the target T1, rhCOX-2 (Homo sapiens, UniProt P35354).
T1 construct: made in house; host or cells: Sf9 or CHO cells (microsomal preparation)
T1 sequence (P35354 18-604): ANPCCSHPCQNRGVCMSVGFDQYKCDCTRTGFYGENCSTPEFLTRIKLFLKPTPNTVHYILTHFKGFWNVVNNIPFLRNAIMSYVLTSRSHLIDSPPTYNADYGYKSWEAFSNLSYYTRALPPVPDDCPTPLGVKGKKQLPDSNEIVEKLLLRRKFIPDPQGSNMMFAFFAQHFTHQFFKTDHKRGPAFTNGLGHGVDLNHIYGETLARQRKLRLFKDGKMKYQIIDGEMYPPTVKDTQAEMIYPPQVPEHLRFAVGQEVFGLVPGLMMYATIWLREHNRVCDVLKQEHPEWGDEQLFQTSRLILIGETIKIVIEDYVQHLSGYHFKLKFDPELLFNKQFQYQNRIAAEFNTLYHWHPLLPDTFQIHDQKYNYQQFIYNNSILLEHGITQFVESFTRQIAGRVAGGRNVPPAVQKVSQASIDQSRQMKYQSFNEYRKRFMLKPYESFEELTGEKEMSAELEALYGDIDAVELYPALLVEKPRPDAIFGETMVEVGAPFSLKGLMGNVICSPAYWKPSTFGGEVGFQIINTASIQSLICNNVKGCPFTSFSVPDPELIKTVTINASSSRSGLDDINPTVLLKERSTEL
In words: Inhibition of rhCOX-2 (PGF2α by EIA, microsomal human recombinant enzyme). Type of data set: biochemical. To be noted: value in parentheses = IC50; 30 min preincubation, 30 μM arachidonic acid, 37° C., pH 7.8; read-out: % inh of rhCOX-2 (IC50). The method, then: A representative compound of this invention was evaluated for inhibition of COX-2 and COX-1 enzymes as follows. Human COX-1 and COX-2 cDNAs were cloned from human monocytes, untreated and LPS-treated respectively, by RT-PCR using oligonucleotide primers based on published hCOX-1 and hCOX-2 sequences (Jones et al., J. Biol. Chem., 268, 9049 (1993)). The cDNAs were then transfected into either Sf9 or CHO cells and subsequently converted into a microsomal preparation as described by Glaser et al (Eur. J. Pharmacol. 281, 107-111 (1995)). The microsomal human recombinant enzymes were diluted with buffer (100 mM Tris, pH 7.8 at 37° C.) containing 0.5 mM phenol (964 μl total volume). The enzyme preparations were preincubated with vehicle (DMSO) or compounds in DMSO (1% DMSO in final assay) for 30 min at 37° C. Excess hematin was added 1 min prior to initiation of reaction ([…] final hematin) with 30 μM arachidonic acid (sodium salt). […]
The reaction was incubated for 35 sec (maximum level of PGH2 accumulation as determined from time course studies), and terminated by addition of […] of SnCl2 (1 mg/ml) in 0.1N HCl. PGH2 is quantitatively converted to PGF2a by this reaction (50% efficiency of total conversion). […] Combined ethyl acetate extracts were dried under N2 (g) and redissolved in EIA buffer (2.0 ml), and PGF2α was quantified by EIA.

Another data set relates to COX-2. The note with it: cited from earlier work; for inhibition of COX-1 and COX-2, selectivity in words: literature.
For another data set, the system named is Alzheimer's disease. The note with it: Rogers et al. 1993; cited from earlier work.
The conditions of data set [1]: Futaki et al. 1993; cited from earlier work.

In the case of `CSc1ccc(/C=C2/C(C)=C(CC(=O)C3=C(O)COC3=O)c3cc(F)ccc32)cc1` [Example 1, (Z)-3-[[5-Fluoro-2-methyl-1-[[4-(methylthio)phenyl]methylene]-1H-inden-3-yl]acetyl]-4-hydroxy-2(5H)-furanone], on rhCOX-2, the half-inhibitory concentration (IC50) is 27 nM.
Turning to `COc1ccc2c(c1)c(CC(=O)O)c(C)n2C(=O)c1ccc(Cl)cc1` [Indomethacin], the “inhibition of COX-1 and COX-2, selectivity in words” value in the data set on COX-2 is “relatively non-selective inhibitor of COX-1 and COX-2”. In the data set on Alzheimer's disease, the “treatment of Alzheimer's disease” value was “useful in the treatment of Alzheimer's disease”.
As for `CS(=O)(=O)Nc1ccc([N+](=O)[O-])cc1OC1CCCCC1` [N-(2-cyclohexyloxy-4-nitrophenyl)methanesulfonamide], the “inhibition of COX-1 and COX-2, selectivity in words” value in the data set with COX-2 is recorded as “selective COX-2 inhibitor”. For the same compound, in data set [1], the antiinflammatory effect result is “effective antiinflammatory” and the gastric side effects entry is on record as “lacks gastric side effects”.
Take `CCc1cccc2c3c([nH]c12)C(CC)(CC(=O)O)OCC3` (stereo not shown) [etodolac]: the “selectivity for inhibition of COX-2” value with COX-2 (fold, reported by Glaser et al. 1995) is given as “tenfold”.
